According to patent US20240116892A1, “HETEROCYCLIC AMIDE AND UREA COMPOUNDS AS JAK2 INHIBITORS” (Ajax Therapeutics, Inc., priority 2022, published 2024):
pKd: −log10 of the molar value.

The compounds below were run against JAK2 (JH1 domain-catalytic, Y1007F, Y1008F) kinase (Homo sapiens (Human), UniProt O60674, Y1007F/Y1008F) (assay: JAK2 JH1 Domain Binding Assay). Conditions: qPCR readout.
In short: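 JH1 catalytic domain (Y1007F/Y1008F) expressed as NFkB DNA-binding-domain fusion in HEK293 cells, DNA-tagged. Competition with immobilized biotinylated ligand on streptavidin beads, 1 h at RT in PBS/Tween/BSA/DTT; bound kinase eluted with free ligand and quantified by qPCR.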

JAK2 (JH1 domain-catalytic, Y1007F, Y1008F) kinase, sequence (O60674 849-1124 Y1007F/Y1008F): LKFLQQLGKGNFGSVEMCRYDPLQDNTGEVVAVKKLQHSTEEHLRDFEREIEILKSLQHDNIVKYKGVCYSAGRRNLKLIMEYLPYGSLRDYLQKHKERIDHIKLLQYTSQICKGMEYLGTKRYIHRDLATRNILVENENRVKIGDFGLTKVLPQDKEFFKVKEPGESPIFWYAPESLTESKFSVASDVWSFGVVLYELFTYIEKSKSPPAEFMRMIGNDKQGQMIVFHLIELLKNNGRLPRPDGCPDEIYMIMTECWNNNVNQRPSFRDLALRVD

Row | SMILES | pKd
1 | CN(C(=O)Nc1cc(C(F)(F)F)cn(C)c1=O)C1CCN(c2cnccn2)CC1 [Example I-10, 1-methyl-3-(1-methyl-2-oxo-5-(trifluoromethyl)-1,2-dihydropyridin-3-yl)-1-(1-(pyrazin-2-yl)piperidin-4-yl)urea] | 7.30 to 8.00
2 | CN(C(=O)Nc1cc(C(F)(F)F)cn(C)c1=O)[C@@H]1C[C@@H]2C[C@H]1CN2c1cnc(NC(=O)C2CC2)cn1 (single isomer, unassigned) [Example I-44-a] | 7.30 to 8.00
3 | C[C@@H]1CN(C(=O)Nc2cc(C(F)(F)F)cn(C)c2=O)C2(CCN(c3cnc4[nH]cc(C#N)c4n3)CC2)C1 (single isomer, unassigned) [Example I-60-a] | 6.00 to 7.30
4 | C[C@H]1CN(C(=O)Nc2cc(C(F)(F)F)cn(C)c2=O)C2(CCN(c3cnc4[nH]ccc4n3)CC2)C1 (single isomer, unassigned) [Example I-53-b] | 6.00 to 7.30
5 | Cn1cc(C(F)(F)F)cc(NC(=O)N(C)[C@H]2CC[C@@H](c3cnc4[nH]cc(N5CCOCC5)c4n3)CC2)c1=O [Example I-142, cis-1-methyl-3-(1-methyl-2-oxo-5-(trifluoromethyl)-1,2-dihydropyridin-3-yl)-1-(4-(7-morpholino-5H-pyrrolo[2,3-b]pyrazin-2-yl)cyclohexyl)urea] | 6.00 to 7.30
6 | CN(C(=O)Nc1cc(C(F)(F)F)cn(C)c1=O)[C@H]1[C@@H]2CC[C@H]1CN(c1cnc3[nH]ncc3c1)C2 [Example I-80, 1-(3-(1H-pyrazolo[3,4-b]pyridin-5-yl)-3-azabicyclo[3.2.1]octan-8-yl)-1-methyl-3-(1-methyl-2-oxo-5-(trifluoromethyl)-1,2-dihydropyridin-3-yl)urea] | 7.30 to 8.00
7 | COCc1cc2nc(N3CC[C@@H](N(C)C(=O)Nc4cc(C(F)(F)F)cn(C)c4=O)[C@H](OC)C3)cnc2[nH]1 [Example I-113-b, 1-((3R,4R)-3-methoxy-1-(6-(methoxymethyl)-5H-pyrrolo[2,3-b]pyrazin-2-yl)piperidin-4-yl)-1-methyl-3-(1-methyl-2-oxo-5-(trifluoromethyl)-1,2-dihydropyridin-3-yl)urea] | 5.30 to 6.00
8 | CN(C(=O)Nc1cc(C(F)(F)F)n([C@H]2CCOC2)n1)C1CCN(c2cnc3[nH]ncc3c2)CC1 [Example I-181, (S)-1-(1-(1H-pyrazolo[3,4-b]pyridin-5-yl)piperidin-4-yl)-1-methyl-3-(1-(tetrahydrofuran-3-yl)-5-(trifluoromethyl)-1H-pyrazol-3-yl)urea] | > 8.00

Further lines, results first:

Row | pKd | SMILES
9 | > 8.00 | CN(C(=O)Nc1cc(C(F)(F)F)cn(C)c1=O)C1CCN(c2cnc3[nH]ccc3n2)CC1(C)C (single isomer, unassigned) [Example I-49-b, (S)- or (R)-1-(3,3-dimethyl-1-(5H-pyrrolo[2,3-b]pyrazin-2-yl)piperidin-4-yl)-1-methyl-3-(1-methyl-2-oxo-5-(trifluoromethyl)-1,2-dihydropyridin-3-yl)urea]
10 | > 8.00 | CN(C(=O)Nc1cc(C(F)(F)F)n([C@@H]2CCOC2)n1)C1CCN(c2cnc3[nH]ncc3c2)CC1 [Example I-180, (R)-1-(1-(1H-pyrazolo[3,4-b]pyridin-5-yl)piperidin-4-yl)-1-methyl-3-(1-(tetrahydrofuran-3-yl)-5-(trifluoromethyl)-1H-pyrazol-3-yl)urea]
11 | > 8.00 | CNc1ccnc2c(N3CCC(N(C)C(=O)Nc4cc(C(F)(F)F)cn(C)c4=O)CC3)cnn12 [Example I-42, 1-methyl-3-(1-methyl-2-oxo-5-(trifluoromethyl)-1,2-dihydropyridin-3-yl)-1-(1-(7-(methylamino)pyrazolo[1,5-a]pyrimidin-3-yl)piperidin-4-yl)urea]
12 | > 8.00 | CN(C(=O)Nc1cc(C(F)(F)F)cn(C)c1=O)C1CCN(c2cnc3[nH]ncc3c2)CC1 [Example I-26, 1-(1-(1H-pyrazolo[3,4-b]pyridin-5-yl)piperidin-4-yl)-1-methyl-3-(1-methyl-2-oxo-5-(trifluoromethyl)-1,2-dihydropyridin-3-yl)urea]
